Assay results taken from patent publication US20250179049A1, “SALTS OF HETEROCYCLIC INHIBITORS OF MONOCARBOXYLATE TRANSPORTER 4 FOR THE TREATMENT OF DISEASE” (Vettore, LLC, priority 2022, published 2025).
Where a name gives a salt, the structure may show the parent alone. Read-outs that look alike come from different tables or passages of the source.

Legend:
[1] = Rat pharmacokinetics, oral gavage; format: in vivo, Sprague-Dawley rats; design: AUClast/D: unit not given here; settings: for MRT inf: read-out: MRTInf—obs; for AUC(0-t) / Cmax / Tmax / AUC0-24 salt/ AUC0-24 free/ / AUC0-24: rat
Method: Groups, Dosing, and Collection. […] Three rats per group were perorally administered 20, 60, or 200 mg Compound 1 free acid or 25, 75, or 250 mg in 0.5% methylcellulose in Saline for a final concentration of 2, 6, or 20 mg/mL Compound 1 free acid or 2.5, 7.5, or […]. Plasma was collected at 5 min, 15 min, 30 min, 1 hour, 2 hour, 4 hour, 6 hour, 8 hour, and 24 hour post dose via jugular vein.
Stock and Dose Prep. Stock solutions were prepared by dissolving 2.47 mg of Compound 1 (free acid) in 2.470 mL DMSO with vortexing to obtain 1 mg/mL solution of Compound 1 (free acid), or 2.09 mg of Compound 1 (Tris salt) in […] DMSO with vortexing to obtain 1 mg/mL solution of Compound 1 (Tris salt). Dosing solutions were prepared by vortexing/sonicating the following solids in solvent:
LC MS-MS Analysis. Liquid Chromatography with tandem mass spectrometry was used to determine plasma concentrations of Compound 1 Free Acid and Compound 1 Tris Salt in plasma samples collected at prescribed time points.
Appropriate serial concentrations of working solutions were achieved by diluting stock solution of analyte with 50% acetonitrile in water solution. Five μL of working solutions (10, 20, 50, 100, 500, 1000, 5000, 8000, 10000 ng/mL) were added to 50 μL of the blank male SD Rat plasma to achieve calibration standards of 1˜1000 ng/ml (1, 2, 5, 10, 50, 100, 500, 800, 1000 ng/mL) in a total volume of 55 μL. Five quality control (QC) samples at 2 ng/mL, 5 ng/mL, 10 ng/mL, 50 ng/mL and 800 ng/mL for plasma were prepared independently of those used for the calibration curves. These QC samples were prepared on the day of analysis in the same way as calibration standards. 55 μL standards, 55 μL QC samples and 55 μL unknown samples (50 μL plasma/blood with 5 μL blank solution) were added to 200 μL of methanol containing internal standard (dexamethasone) mixture for precipitating protein respectively, and vortexed for 30 seconds. After centrifugation at 4° C. and 4000 rpm for 15 minutes. The supernatant was diluted with water with a ratio of 1:2. 2 μL of the supernatant was injected into the LC/MS/MS system for quantitative analysis.
Instrumentation included HALO 90A C18 2.7 μm 2.1×50 mm HPLC column, a Prominence degasser DGU-20A5R(C), liquid chromatograph Shimadzu LC-30AD with communications bus module CBM-20A and Auto SIL-20AC HT; and an AB Sciex Triple Quad 5500 LC/MS/MS instrument.

beagle dogs = assay: in vivo; settings: both, dog, 28 days
Method: Compound 1 was administered to beagle dogs by oral gavage in a range finding study at doses of 30, 79, 240, or 790 mg/kg. […] Compound 1 was administered at doses of 10, 50, and 150 mg/kg/day in the pivotal repeat dose toxicity studies for 28 days.
Compound 1 tris salt was evaluated for safety in 7- and 28-day studies in rats and dogs. […] The NOAELs for this rat study were 120 mg/kg/day for males and 75 mg/kg/day for females. […] The NOAEL determined in the 28-day dog GLP study was 150 mg/kg/day. These correspond to human equivalent doses (HEDs) of: • Rat: 75 mg/kg×0.16=12 mg/kg • Dog: 150 mg/kg×0.54=81 mg/kg

[2] = Sprague-Dawley, plasma, rat PO 25 mg/kg, female, mean
[3] = Sprague-Dawley, plasma, rat PO 25 mg/kg, male, mean
[4] = Sprague-Dawley, plasma, rat PO 75 mg/kg, female, mean
[5] = Sprague-Dawley, plasma, rat PO 75 mg/kg, male, mean
[6] = Sprague-Dawley, plasma, rat PO 250 mg/kg, female, mean
[7] = Sprague-Dawley, plasma, rat PO 250 mg/kg, male, mean
[8] = Female, PO/20 mg/kg, Mean ± SD, 20 mg/kg
[9] = Female, PO/60 mg/kg, Mean ± SD, 60 mg/kg
[10] = Female, PO/200 mg/kg, Mean ± SD, 200 mg/kg

## CC(C)(OCc1cc(-c2cccc(OC3CCC3)c2)n(-c2ccccc2N2CCC2)n1)C(=O)O [Compound 1 tris salt, tris salt of 2-((1-(2-(azetidin-1-yl)phenyl)-5-(3-cyclobutoxyphenyl)-1H-pyrazol-3-yl)methoxy)-2-methylpropanoic acid]
[1]; [2]
  AUC(0-inf): 1040 µg·h/mL
  half-life: 6.53 h
  MRT inf: 9.9 h
[1]; [3]
  AUC(0-inf): 357 µg·h/mL
  half-life: 3.24 h
  MRT inf: 6.1 h
[1]; [4]
  AUC(0-inf): 3270 µg·h/mL
  half-life: 9.6 h
  MRT inf: 14.7 h
[1]; [5]
  AUC(0-inf): 910 µg·h/mL
  half-life: 2.91 h
  MRT inf: 6.03 h
[1]; [6]
  AUC(0-inf): 16300 µg·h/mL
  half-life: 40.5 h
  MRT inf: 62 h
[1]; [7]
  AUC(0-inf): 2890 µg·h/mL
  half-life: 12.2 h
  MRT inf: 18.6 h
[1]; female, Sprague-Dawley, plasma, po, 25 mg/kg, rat PO 25 mg/kg, female, mean, read-out: AUClast
  AUC(0-t): 947 µg·h/mL
[1]; female, Sprague-Dawley, plasma, po, 25 mg/kg, rat PO 25 mg/kg, female, mean, read-out: Cmax
  Cmax: 68.6 µg/mL
[1]; female, Sprague-Dawley, plasma, po, 25 mg/kg, rat PO 25 mg/kg, female, mean, read-out: Tmax
  Tmax: 6 h
[1]; female, Sprague-Dawley, plasma, po, 75 mg/kg, rat PO 75 mg/kg, female, mean, read-out: AUClast
  AUC(0-t): 2540 µg·h/mL
[1]; female, Sprague-Dawley, plasma, po, 75 mg/kg, rat PO 75 mg/kg, female, mean, read-out: Cmax
  Cmax: 171 µg/mL
[1]; female, Sprague-Dawley, plasma, po, 75 mg/kg, rat PO 75 mg/kg, female, mean, read-out: Tmax
  Tmax: 5.33 h
[1]; female, Sprague-Dawley, plasma, po, 250 mg/kg, rat PO 250 mg/kg, female, mean, read-out: AUClast
  AUC(0-t): 4470 µg·h/mL
[1]; female, Sprague-Dawley, plasma, po, 250 mg/kg, rat PO 250 mg/kg, female, mean, read-out: Cmax
  Cmax: 223 µg/mL
[1]; female, Sprague-Dawley, plasma, po, 250 mg/kg, rat PO 250 mg/kg, female, mean, read-out: Tmax
  Tmax: 6.67 h
[1]; male and female rats
  Total drug exposure across time (AUClast and AUCInf) compared with free acid: higher
[1]; male, Sprague-Dawley, plasma, po, 25 mg/kg, rat PO 25 mg/kg, male, mean, read-out: AUClast
  AUC(0-t): 352 µg·h/mL
[1]; male, Sprague-Dawley, plasma, po, 25 mg/kg, rat PO 25 mg/kg, male, mean, read-out: Cmax
  Cmax: 44.2 µg/mL
[1]; male, Sprague-Dawley, plasma, po, 25 mg/kg, rat PO 25 mg/kg, male, mean, read-out: Tmax
  Tmax: 2.86 h
[1]; male, Sprague-Dawley, plasma, po, 25 mg/kg, Male, PO/25 mg/kg, Mean ± SD, read-out: AUC0-24
  AUC(0-t): 352 µg·h/mL
[1]; male, Sprague-Dawley, plasma, po, 25 mg/kg, Male, PO/25 mg/kg, Mean ± SD, read-out: Cmax
  Cmax: 44.2 µg/mL
[1]; male, Sprague-Dawley, plasma, po, 25 mg/kg, Male, PO/25 mg/kg, Mean ± SD, read-out: Tmax
  Tmax: 2.9 ± 4.5 h
[1]; male, Sprague-Dawley, plasma, po, 75 mg/kg, rat PO 75 mg/kg, male, mean, read-out: AUClast
  AUC(0-t): 906 µg·h/mL
[1]; male, Sprague-Dawley, plasma, po, 75 mg/kg, rat PO 75 mg/kg, male, mean, read-out: Cmax
  Cmax: 92.3 µg/mL
[1]; male, Sprague-Dawley, plasma, po, 75 mg/kg, rat PO 75 mg/kg, male, mean, read-out: Tmax
  Tmax: 4 h
[1]; male, Sprague-Dawley, plasma, po, 75 mg/kg, Male, PO/75 mg/kg, Mean ± SD, read-out: AUC0-24
  AUC(0-t): 906 µg·h/mL
[1]; male, Sprague-Dawley, plasma, po, 75 mg/kg, Male, PO/75 mg/kg, Mean ± SD, read-out: Cmax
  Cmax: 92.3 µg/mL
[1]; male, Sprague-Dawley, plasma, po, 75 mg/kg, Male, PO/75 mg/kg, Mean ± SD, read-out: Tmax
  Tmax: 4 ± 2 h
[1]; male, Sprague-Dawley, plasma, po, 250 mg/kg, rat PO 250 mg/kg, male, mean, read-out: AUClast
  AUC(0-t): 2090 µg·h/mL
[1]; male, Sprague-Dawley, plasma, po, 250 mg/kg, rat PO 250 mg/kg, male, mean, read-out: Cmax
  Cmax: 144 µg/mL
[1]; male, Sprague-Dawley, plasma, po, 250 mg/kg, rat PO 250 mg/kg, male, mean, read-out: Tmax
  Tmax: 5.33 h
[1]; male, Sprague-Dawley, plasma, po, 250 mg/kg, Male, PO/250 mg/kg, Mean ± SD, read-out: AUC0-24
  AUC(0-t): 2090 µg·h/mL
[1]; male, Sprague-Dawley, plasma, po, 250 mg/kg, Male, PO/250 mg/kg, Mean ± SD, read-out: Cmax
  Cmax: 144 µg/mL
[1]; male, Sprague-Dawley, plasma, po, 250 mg/kg, Male, PO/250 mg/kg, Mean ± SD, read-out: Tmax
  Tmax: 5.3 ± 1.1 h
[1]; rat PO 25 mg/kg, female, mean
  AUClast/D: 37897
  AUC—% Extrap—obs: 9%
[1]; rat PO 25 mg/kg, male, mean
  AUClast/D: 14077
  AUC—% Extrap—obs: 1.28%
[1]; rat PO 75 mg/kg, female, mean
  AUClast/D: 33882
  AUC—% Extrap—obs: 18.5%
[1]; rat PO 75 mg/kg, male, mean
  AUClast/D: 12078
  AUC—% Extrap—obs: 0.473%
[1]; rat PO 250 mg/kg, female, mean
  AUClast/D: 17869
  AUC—% Extrap—obs: 59.9%
[1]; rat PO 250 mg/kg, male, mean
  AUClast/D: 8340
  AUC—% Extrap—obs: 26.5%
[1]; Female, PO/20 mg/kg
  AUC0-24 salt/ AUC0-24 free/: 1.07
[1]; [8]
  AUC0-24: 947,000 ± 135,000 ng h/mL
  Cmax: 68,600 ± 6400 ng/mL
[1]; Female, PO/60 mg/kg
  AUC0-24 salt/ AUC0-24 free/: 1.78
[1]; [9]
  AUC0-24: 2,540,000 ± 503,000 ng h/mL
  Cmax: 171,000 ± 11,600 ng/mL
[1]; Female, PO/200 mg/kg
  AUC0-24 salt/ AUC0-24 free/: 1.57
[1]; [10]
  AUC0-24: 4,470,000 ± 705,000 ng h/mL
  Cmax: 223,000 ± 29,900 ng/mL
  Tmax: 6.7 ± 1.1 h
[1]; Male, PO/25 mg/kg
  AUC0-24 salt/ AUC0-24 free/: 2.11
[1]; Male, PO/75 mg/kg
  AUC0-24 salt/ AUC0-24 free/: 2.03
[1]; Male, PO/250 mg/kg
  AUC0-24 salt/ AUC0-24 free/: 1.89
Beagle dogs
  Adverse effects: no Compound 1 tris salt-related adverse effects
